# Assay results published in patent US20230134760A1, “CAR AND NRF2 DUAL ACTIVATOR AGENTS FOR CYCLOPHOSPHAMIDE-BASED AND DOXORUBICIN-BASED TREATMENTS OF CANCER” (priority 2020, published 2023).
# System: hCAR
# Assay: hCAR luciferase reporter assay in HepG2 cells (hCAR1+A, CYP2B6-2.2k reporter)
# Type: cell-based, human
# Procedure: HepG2 cells were cultured in 24-well plates (1×10^5 cells/well) and transfected with either a hCAR1+A expression vector (30 ng/well), a CYP2B6-2.2k reporter (60 ng/well) reporter, and pRL-TK (10 ng/well) or a ARE expression vector using X-tremeGENE 9 DNA Transfection Reagent (Sigma-Aldrich). After an overnight transfection, cells were treated with a vehicle control (0.1% DMSO), RIF (10 μM), DL7076 (1 μM, 5 μM, and 10 μM) for 24 hours. Cell lysates were assayed for luciferase activity and normalized against the activity of the Renilla luciferase using a Dual-Luciferase Kit (Promega).
smiles,measurement,setting,value
"O=C(NCCN=C=S)c1c(-c2ccc3ccccc3c2)nc2sccn12 [DL7076, N-(2-Isothiocyanatoethyl)-6-(naphthalen-2-yl)imidazo[2,1-b]thiazole-5-carboxamide]","CAR1+A activation, luciferase reporter","HepG2, 10 μM, 24 hours, vs CITCO 1 μM","activate CAR1+A in a comparable manner to the prototypical CAR activator, CITCO"
same,hCAR luciferase activity (efficacy among compound hybrids),"HepG2, screening, FIG. 37a",highest efficacy
